Results taken from PMC8469395 (Pharmaceutics, 2021).
Where two headings read alike, the source gives them in different places.

Legend:
TR-iBRB2 cells [1] = experiment: Effect of compounds on [3H]amantadine uptake by TR-iBRB2 cells; type: in vitro ADME, rat; details: for [3H]amantadine uptake, % of Control, TR-iBRB2: [3H]amantadine 1.67 µM, 3 min, 37 °C; for activity at 2500 µM / activity at 200 µM: Rattus norvegicus, 0.05 h, read-out: [3H]amantadine uptake, % of Control, TR-iBRB2
Procedure: (§1) In 10% fetal bovine serum (FBS; Merck, Darmstadt, Germany)-containing Dulbecco’s modified Eagle’s medium (DMEM; Nissui Pharmaceutical, Tokyo, Japan) with 20 mM NaHCO3, 0.19 mM benzylpenicillin potassium, and 0.14 mM streptomycin sulfate, TR-iBRB2 cells (passage number 32–60) were cultured according to previous reports. As described previously, RPE-J cells (passage number 79-92) were cultured in DMEM with 4% FBS, 20 mM NaHCO3, and 0.1 mM non-essential amino acid (FUJIFILM Wako Pure Chemical, Osaka, Japan) containing 0.16 mM benzylpenicillin potassium and 0.17 mM streptomycin sulfate. In accordance with established protocols for the uptake study, the cells were seeded at a density of 1.0 × 10^5 cells/well onto a collagen I-coated 24-well plate (BioCoat™ Collagen I Cellware, Corning, Corning, NY, USA) and cultured for 2 days, at 33 °C, under 5% CO2/air. Referring to the previous reports, we started the uptake reaction, and the details of the procedure are included in the Supplemental Materials.
(§2) Cell/medium ratio = [^3H]compound (dpm) per cell protein (mg)/[^3H]compound (dpm) per medium (µL)(2) […]
(§3) 7.4) three times at 37°C.
(§4) and KHCO3, respectively. Cl--free ECF buffer was prepared by replacing equimolar
(§5) protein assay kit (Bio-Rad, Hercules, CA, USA).

RPE-J cells [2] = experiment: Effect of compounds on [3H]amantadine uptake by RPE-J cells; type: in vitro ADME, rat; details: for [3H]amantadine uptake, % of Control, RPE-J: [3H]amantadine 1.67 µM, 3 min, 37 °C; for activity at 2500 µM / activity at 200 µM / activity at 1000 µM: Rattus norvegicus, 0.05 h, read-out: [3H]amantadine uptake, % of Control, RPE-J
Procedure: as §1, §2, §3, §4, §5

TR-iBRB2 cells [3] = details: read-out: Km for uptake by TR-iBRB2 cells; cited from earlier work
TR-iBRB2 cells [4] = experiment: Amantadine uptake by TR-iBRB2 cells (inner BRB model); type: in vitro ADME, rat
Procedure: as §1
(§6) Cell/medium ratio = [^3H]compound (dpm) per cell protein (mg)/[^3H]compound (dpm) per medium (µL)(2)
(§7) Kinetic parameters for cell uptake, such as the maximal uptake rate (Vmax), Michaelis–Menten constant (Km), and non-saturable uptake clearance (Kd), were obtained by using the nonlinear least-squares regression analysis program (MULTI) with Equations (3)–(5), where the uptake rate of the test compound and its concentration were V and S, respectively. V = (Vmax × S)/(Km + S)(3) V = (Vmax × S)/(Km + S) + Kd × S(4) V = (Vmax1 × S)/(Km1 + S) + (Vmax2 × S)/(Km2 + S)(5) […]
as §3, §4, §5

RPE-J cells [5] = experiment: Amantadine uptake by RPE-J cells (outer BRB model); type: in vitro ADME, rat; details: for Km1 (high-affinity process): 1.67 µM−10 mM
Procedure: as §1, §6, §7, §3, §4, §5

[6] = cited from earlier work
[7] = set-up: method as in ref 31 = [31]; 31. Grabowski T. Gumulka S.W. Borucka B. Raszewski W. Analysis relationships between pharmacokinetic parameters in silico/in vivo of selected antiviral drugs based on structural analysis Adv. Clin. Ex; details: cited from earlier work
NMDA receptors = molecular target: NMDA receptors; set-up: method as in ref 47 (Parsons et al.); details: ref 47 (Parsons et al.); cited from earlier work
[8] = pharmacotherapy for Parkinson's disease; cited from earlier work
[9] = test system: retina (blood–retinal barrier); experiment: In vivo blood-to-retina transport, retinal uptake index (RUI) method; details: co-administration of 50 mM compound, rat
[10] = pretreatment 30 mM NH4Cl, 15 s, 37 °C

CC(C)C[C@H](N)C(=O)O [L-Leucine]
[3H]amantadine uptake, % of Control, TR-iBRB2 (TR-iBRB2 cells [1]; compound 2.5 mM): 112 ± 17 % of Control
[3H]amantadine uptake, % of Control, RPE-J (RPE-J cells [2]; compound 2.5 mM): 113 ± 16 % of Control

N=C(N)NCCC[C@H](N)C(=O)O [L-Arginine]
activity at 2500 µM (TR-iBRB2 cells [1]): 127 ± 15%
activity at 2500 µM (RPE-J cells [2]): 150 ± 38%

Nc1ccc(C(=O)NCC(=O)O)cc1 [PAH, p-aminohippuric acid]
activity at 200 µM (TR-iBRB2 cells [1]): 85.8 ± 10.8%
activity at 200 µM (RPE-J cells [2]): 139 ± 33%

CC(C)NCC(O)COc1cccc2ccccc12 (centres unmarked) [Propranolol]
reduction of [3H]amantadine uptake by TR-iBRB2 cells (TR-iBRB2 cells [1]; compound 0.2 mM): more than 58%
[3H]amantadine uptake, % of Control, TR-iBRB2 (TR-iBRB2 cells [1]; compound 0.2 mM): 8.61 ± 0.75 % of Control
[3H]amantadine uptake, % of Control, RPE-J (RPE-J cells [2]; compound 0.2 mM): 15.7 ± 5.9 % of Control
Km (TR-iBRB2 cells [3]): 237 µM

NCC(=O)O [Glycine]
[3H]amantadine uptake, % of Control, TR-iBRB2 (TR-iBRB2 cells [1]; compound 2.5 mM): 102 ± 4 % of Control
[3H]amantadine uptake, % of Control, RPE-J (RPE-J cells [2]; compound 2.5 mM): 116 ± 13 % of Control

CC(C)(C)NC[C@H](O)COc1nsnc1N1CCOCC1 [Timolol]
[3H]amantadine uptake, % of Control, TR-iBRB2 (TR-iBRB2 cells [1]; compound 0.2 mM): 34.6 ± 10.6 % of Control
[3H]amantadine uptake, % of Control, RPE-J (RPE-J cells [2]; compound 0.2 mM): 59.1 ± 5.1 % of Control

CCc1nc(N)nc(N)c1-c1ccc(Cl)cc1 [Pyrimethamine]
activity at 200 µM (TR-iBRB2 cells [1]): 44.3 ± 8.8%
activity at 200 µM (RPE-J cells [2]): 88.9 ± 3.3%

N#CC(C#N)=NNc1ccc(OC(F)(F)F)cc1 [FCCP, carbonyl cyanide-p-trifluoromethoxyphenylhydrazone]
decrease of [3H]amantadine uptake (TR-iBRB2 cells [1]): 50%

NC12CC3CC(CC(C3)C1)C2 [Amantadine]
reduction of uptake at extracellular pH 6.4 (TR-iBRB2 cells [4]): 64%
reduction of uptake at 4 °C (TR-iBRB2 cells [4]; 4 °C vs 37 °C): 86%
Km (TR-iBRB2 cells [4]; 37 °C, 3 min, 1.67 to 1000 µM): 79.4 µM
Vmax (TR-iBRB2 cells [4]; 37 °C, 3 min, 1.67 to 1000 µM): 1.36 ± 0.38 nmol/(min·mg protein)
reduction of uptake in Cl−-free buffer (TR-iBRB2 cells [4]; 3 min, 37 °C): 38%
initial uptake rate (TR-iBRB2 cells [4]; [3H]amantadine 1.67 µM, 37 °C): 14.0 ± 4.1 µL/(min·mg protein)
decrease of uptake at alkalized intracellular pH (TR-iBRB2 cells [4]; acute 30 mM NH4Cl, 15 s, 37 °C): 80%
increase of uptake at acidified intracellular pH (TR-iBRB2 cells [4]; [10]): 90%
Km2 (low-affinity process) (RPE-J cells [5]): 9830 ± 1620 µM
Vmax1 (high-affinity process) (RPE-J cells [5]): 0.914 ± 0.510 nmol/(min·mg protein)
Vmax2 (low-affinity process) (RPE-J cells [5]): 85.3 ± 11.4 nmol/(min·mg protein)
contribution of the high-affinity process (RPE-J cells [5]): 54%
contribution of the low-affinity process (RPE-J cells [5]): 46%
decrease of uptake at extracellular pH 6.4 (RPE-J cells [5]): 32%
increase of uptake at extracellular pH 8.4 (RPE-J cells [5]): 25%
Km1 (high-affinity process) (RPE-J cells [5]): 90.5 ± 49.6 µM
Km1 (high-affinity process) (RPE-J cells [5]; listed as amantadine): 90.5 µM
reduction of uptake at 4 °C (RPE-J cells [5]; 4 °C vs 37 °C): 87%
initial uptake rate (RPE-J cells [5]; [3H]amantadine 1.67 µM, 37 °C): 15.9 ± 0.3 µL/(min·mg protein)
decrease of uptake at alkalized intracellular pH (RPE-J cells [5]; acute 30 mM NH4Cl, 15 s, 37 °C): 78%
Km2 (low-affinity process) (RPE-J cells [5]; listed as amantadine): 9830 µM
increase of uptake at acidified intracellular pH (RPE-J cells [5]; [10]): 18%
activity at 200 µM (TR-iBRB2 cells [1]): 34.1 ± 4.1%
activity at 200 µM (RPE-J cells [2]): 89.9 ± 5.6%
activity at 1000 µM (RPE-J cells [2]): 21.3 ± 3.1%
pKa [6]: 10.1
log D [7]: 0.176
IC50 (NMDA receptors): 20 µM
plasma concentration range [8]: 600 to 29000 nM
decrease of [3H]amantadine RUI [9]: 44%

C[N+](C)(C)CCO [Choline]
activity at 200 µM (TR-iBRB2 cells [1]): 101 ± 8%
activity at 200 µM (RPE-J cells [2]): 124 ± 39%

N[C@@H](CCC(=O)O)C(=O)O [L-Glutamic acid]
activity at 2500 µM (TR-iBRB2 cells [1]): 80.2 ± 10%
activity at 2500 µM (RPE-J cells [2]): 84.5 ± 16.4%

Clc1cccc(Cl)c1N=C1NCCN1 [Clonidine]
activity at 200 µM (TR-iBRB2 cells [1]): 42.1 ± 12.1%
reduction of [3H]amantadine uptake by TR-iBRB2 cells (TR-iBRB2 cells [1]; compound 0.2 mM): more than 58%
activity at 200 µM (RPE-J cells [2]): 71.6 ± 4.7%
activity at 1000 µM (RPE-J cells [2]): 30.8 ± 4%
Km (TR-iBRB2 cells [3]): 286 µM

CC12CC3CC(C)(C1)CC(N)(C3)C2 [Memantine]
activity at 200 µM (TR-iBRB2 cells [1]): 16.7 ± 2.2%
activity at 200 µM (RPE-J cells [2]): 123 ± 38%
activity at 1000 µM (RPE-J cells [2]): 27.1 ± 2.6%
